Measured values taken from US10174037B2, “Dihydropyrazolopyrimidinone compounds as PDE2 inhibitors” (Merck Sharp & Dohme Corp., priority 2015, dated 2019).
Read-outs that look alike come from different tables or passages of the source.

Tests used:
Rhesus PDE2A3 = Rhesus PDE2A3 (Macaca mulatta, UniProt B3VTJ2); test: PDE2 fluorescence polarization (IMAP FP) assay, rhesus PDE2A3; type: biochemical, rhesus macaque
human PDE2A1 = human PDE2A1 (Homo sapiens (Human), UniProt O00408); test: PDE selectivity IMAP FP assay, human PDE2A1; type: biochemical; details: Human PDE2
Outline: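 IMAP fluorescence polarization assay; PDE2 substrate 50 nM FAM-cAMP containing 1000 nM cGMP, enzyme diluted for 20% substrate conversion, in 10 mM Tris HCl pH 7.2, 10 mM MgCl2, 1 mM DTT. Reaction 60 min at room temperature, stopped with IMAP binding solution; polarization read after 1 h. Ki reported.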

[1] = Lab B, read-out: Rhesus PDE2 Ki (nM) Lab B
[2] = Lab B, read-out: Human PDE2 Ki (nM) Lab B
[3] = Lab A, read-out: Rhesus PDE2 Ki (nM) Lab A
[4] = Lab A, read-out: Human PDE2 Ki (nM) Lab A

Sequence of Rhesus PDE2A3 (B3VTJ2 1-941): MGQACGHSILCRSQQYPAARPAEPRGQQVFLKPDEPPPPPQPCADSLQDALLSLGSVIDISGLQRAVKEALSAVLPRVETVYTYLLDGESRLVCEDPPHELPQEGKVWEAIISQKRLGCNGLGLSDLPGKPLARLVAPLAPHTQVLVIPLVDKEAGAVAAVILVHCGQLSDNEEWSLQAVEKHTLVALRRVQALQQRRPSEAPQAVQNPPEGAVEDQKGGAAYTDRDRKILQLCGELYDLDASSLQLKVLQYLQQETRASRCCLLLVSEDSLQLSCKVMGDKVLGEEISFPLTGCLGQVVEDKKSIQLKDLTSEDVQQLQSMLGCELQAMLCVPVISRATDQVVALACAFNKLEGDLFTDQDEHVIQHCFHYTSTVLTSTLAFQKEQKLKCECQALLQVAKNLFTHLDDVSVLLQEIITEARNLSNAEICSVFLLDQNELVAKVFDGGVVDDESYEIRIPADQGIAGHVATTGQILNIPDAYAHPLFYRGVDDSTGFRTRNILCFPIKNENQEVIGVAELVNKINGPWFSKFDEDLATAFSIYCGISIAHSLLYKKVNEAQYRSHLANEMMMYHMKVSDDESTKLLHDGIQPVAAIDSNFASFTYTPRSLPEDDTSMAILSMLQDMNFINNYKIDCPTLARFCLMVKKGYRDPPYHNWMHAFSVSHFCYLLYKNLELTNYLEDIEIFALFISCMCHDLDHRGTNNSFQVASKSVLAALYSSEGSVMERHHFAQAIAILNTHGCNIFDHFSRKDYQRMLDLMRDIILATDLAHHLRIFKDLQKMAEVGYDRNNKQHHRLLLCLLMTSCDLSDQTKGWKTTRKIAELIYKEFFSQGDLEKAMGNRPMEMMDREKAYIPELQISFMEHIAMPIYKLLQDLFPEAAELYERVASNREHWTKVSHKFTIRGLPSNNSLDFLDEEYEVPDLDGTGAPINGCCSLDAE
Sequence of human PDE2A1 (O00408 other isoform, or with tags, fused parts or gaps): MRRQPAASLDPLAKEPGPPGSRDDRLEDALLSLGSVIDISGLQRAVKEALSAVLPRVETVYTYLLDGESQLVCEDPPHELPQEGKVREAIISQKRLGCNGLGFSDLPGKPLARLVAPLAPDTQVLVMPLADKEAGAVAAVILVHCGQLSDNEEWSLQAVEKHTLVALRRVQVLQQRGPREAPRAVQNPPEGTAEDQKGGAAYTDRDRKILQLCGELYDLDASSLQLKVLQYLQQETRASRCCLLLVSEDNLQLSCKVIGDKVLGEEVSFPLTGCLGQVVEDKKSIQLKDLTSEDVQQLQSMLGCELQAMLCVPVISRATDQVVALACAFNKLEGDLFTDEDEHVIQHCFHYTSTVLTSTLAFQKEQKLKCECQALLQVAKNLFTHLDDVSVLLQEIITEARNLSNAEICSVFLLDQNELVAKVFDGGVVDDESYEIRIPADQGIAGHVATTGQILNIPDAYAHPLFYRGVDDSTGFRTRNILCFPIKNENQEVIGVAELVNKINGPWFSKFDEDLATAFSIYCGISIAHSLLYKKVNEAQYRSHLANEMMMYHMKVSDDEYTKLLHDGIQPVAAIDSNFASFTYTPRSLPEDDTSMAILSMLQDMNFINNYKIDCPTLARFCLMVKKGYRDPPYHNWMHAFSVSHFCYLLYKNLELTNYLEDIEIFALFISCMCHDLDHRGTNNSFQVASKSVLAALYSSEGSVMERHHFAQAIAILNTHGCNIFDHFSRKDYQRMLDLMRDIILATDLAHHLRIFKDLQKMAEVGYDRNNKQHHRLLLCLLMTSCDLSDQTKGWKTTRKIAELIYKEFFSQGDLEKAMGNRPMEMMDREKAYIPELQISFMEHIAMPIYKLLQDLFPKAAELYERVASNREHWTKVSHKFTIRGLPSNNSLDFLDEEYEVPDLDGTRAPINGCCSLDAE

Compound	Ki (Rhesus PDE2A3; [1])	Ki (human PDE2A1; [2])	Ki (Rhesus PDE2A3; [3])	Ki (human PDE2A1; [4])
CC(C)C(c1ccc(C(F)(F)F)cc1)n1nc(CF)c2c(=O)[nH]c(N(C)C)nc21 (single isomer, unassigned) [Example 163]	0.07 nM	0.056 nM	–	–
C[C@@H](c1ccc(C(F)(F)F)cc1)n1nc(CF)c2c(=O)[nH]c(N3CCC3)nc21 [Example 225, 6-Azetidin-1-yl-3-(fluoromethyl)-1-{(1S)-1-[4-(trifluoromethyl)phenyl]ethyl}-1,5-dihydro-4H-pyrazolo[3,4-d]pyrimidin-4-one]	0.4 nM	0.41 nM	–	–
COc1nc2c(c(C)nn2C(C)c2ccc(C(F)(F)F)cc2)c(=O)[nH]1 (stereo not drawn) [Example 59, 6-Methoxy-3-methyl-1-{1-[4-(trifluoromethyl)phenyl]ethyl}-1,5-dihydro-4H-pyrazolo[3,4-d]pyrimidin-4-one]	–	–	1140 nM	760 nM
CC(C)C(c1ccc(C(F)(F)F)c(F)c1)n1nc(CO)c2c(=O)[nH]c(N(C)C)nc21 (single isomer, unassigned) [Example 142, (R)- or (S)-6-(Dimethylamino)-1-(1-(3-fluoro-4-(trifluoromethyl)phenyl)-2-methylpropyl)-3-(hydroxymethyl)-1H-pyrazolo[3,4-d]pyrimidin-4(5H)-one]	0.29 nM	0.19 nM	–	–
C[C@@H](c1ccc(C(F)(F)F)cc1)n1nc(CC#N)c2c(=O)[nH]c(O)nc21 [Example 298, (S)-2-(6-Hydroxy-4-oxo-1-(1-(4-(trifluoromethyl)phenyl)ethyl)-4,5-dihydro-1H-pyrazolo[3,4-d]pyrimidin-3-yl)acetonitrile]	5 nM	4.7 nM	–	–
CCC(c1ccc(C(F)(F)F)cc1F)n1nc(CO)c2c(=O)[nH]c(N(C)C)nc21 (single isomer, unassigned) [Example 130, (R)- or (S)-6-(Dimethylamino)-1-(1-(2-fluoro-4-(trifluoromethyl)phenyl)propyl)-3-(hydroxymethyl)-1H-pyrazolo[3,4-d]pyrimidin-4(5H)-one]	0.12 nM	0.071 nM	–	–
CC(c1ccc(CC(F)(F)F)c(F)c1)n1nc(CO)c2c(=O)[nH]c(N(C)C)nc21 (single isomer, unassigned) [Example 100, (R)- or (S)-6-(Dimethylamino)-1-(1-(3-fluoro-4-(2,2,2-trifluoroethyl)phenyl)ethyl)-3-(hydroxymethyl)-1H-pyrazolo[3,4-d]pyrimidin-4(5H)-one]	1.1 nM	0.88 nM	–	–
CC(C)c1ccc(C(C2CC2)n2nc(CO)c3c(=O)[nH]c(N(C)C)nc32)cc1 (single isomer, unassigned) [Example 77, (S)- or (R)-1-(Cyclopropyl(4-isopropxlphenyl)methyl)-6-(dimethylamino)-3-(hydroxymethyl)-1H-pyrazolo[3,4-d]pyrimidin-4(5H)-one]	0.084 nM	0.069 nM	–	–
Cc1ccc(C(C)n2nc(CCl)c3c(=O)[nH]c(O)nc32)cc1 (stereo not drawn) [Example 57, 3-(Chloromethyl)-6-hydroxy-1-(1-p-tolylethyl)-1H-pyrazolo[3,4-d]pyrimidin-4(5H)-one]	40 nM	28 nM	26 nM	11 nM
CN(C)c1nc2c(c(CF)nn2C(c2ccc(OC(F)F)c(F)c2)C2CC2)c(=O)[nH]1 (single isomer, unassigned) [Example 189, (S)- or (R)-1-(Cyclopropyl(4-(difluoromethoxy)-3-fluorophenyl)methyl)-6-(dimethylamino)-3-(fluoromethyl)-1H-pyrazolo[3,4-d]pyrimidin-4(5H)-one]	0.62 nM	0.35 nM	–	–
CCC(c1ccc(C(C)(F)F)c(F)c1)n1nc(CO)c2c(=O)[nH]c(N(C)C)nc21 (single isomer, unassigned) [Example 113]	0.055 nM	0.057 nM	–	–
CN(C)c1nc2c(c(CF)nn2C(c2ccc(C(F)(F)F)c(F)c2)C2CC2)c(=O)[nH]1 (single isomer, unassigned) [Example 181, (S)- or (R)-1-(Cyclopropyl(3-fluoro-4-(trifluoromethyl)phenyl)methyl)-6-(dimethylamino)-3-(fluoromethyl)-1H-pyrazolo[3,4-d]pyrimidin-4(5H)-one]	0.11 nM	0.058 nM	–	–
O=c1[nH]c(O)nc2c1c(CC(F)(F)F)nn2C(c1ccc(OC(F)(F)F)c(F)c1)C1CC1 (single isomer, unassigned) [Example 252, (R)- or (S)-1-(Cyclopropyl(3-fluoro-4-(trifluoromethoxy)phenyl)methyl)-6-hydroxy-3-(2,2,2-trifluoroethyl)-1H-pyrazolo[3,4-d]pyrimidin-4(5H)-one]	68 nM	73 nM	–	–
CC(c1ccc(OC(F)(F)F)c(F)c1)n1nc(CC#N)c2c(=O)[nH]c(O)nc21 (single isomer, unassigned) [Example 299, (R)- or (S)-2-(1-(1-(3-Fluoro-4-(trifluoromethoxy)phenyl)ethyl)-6-hydroxy-4-oxo-4,5-dihydro-1H-pyrazolo[3,4-d]pyrimidin-3-yl)acetonitrile]	21 nM	17 nM	–	–

Now from value to molecule:

Ki (Rhesus PDE2A3; [1])	Ki (human PDE2A1; [2])	Ki (Rhesus PDE2A3; [3])	Ki (human PDE2A1; [4])	Compound
0.25 nM	0.16 nM	–	–	CCC(c1ccc(C(F)(F)F)cc1)n1nc(CO)c2c(=O)[nH]c(N(C)C)nc21 (single isomer, unassigned) [Example 73, (S)- or (R)-6-(Dimethylamino)-3-(hydroxymethyl)-1-(1-(4-(trifluoromethyl)phenyl)propyl)-1H-pyrazolo[3,4-d]pyrimidin-4(5H)-one]
0.39 nM	0.29 nM	–	–	CC(C)C(c1ccc(C(F)(F)F)cc1)n1nc(CO)c2c(=O)[nH]c(N(C)C)nc21 (single isomer, unassigned) [Example 64, (R)- or (S)-6-Dimethylamino)-3-(hydroxymethyl)-1-(2-methyl-1-(4-(trifluoromethyl)phenyl)propyl)-1H-pyrazolo[3,4-d]pyrimidin-4(5H)-one]
3.2 nM	4 nM	–	–	CC(c1ccc(OC(F)(F)F)cc1)n1nc(C(F)F)c2c(=O)[nH]c(O)nc21 (single isomer, unassigned) [Example 274, (S)- or (R)-3-(Difluoromethyl)-6-hydroxy-1-(1-(4-(trifluoromethoxy)phenyl)ethyl)-1H-pyrazolo[3,4-d]pyrimidin-4(5H)-one]
0.075 nM	0.053 nM	–	–	CN(C)c1nc2c(c(CF)nn2C(c2ccc(C(C)(F)F)cc2)C2CC2)c(=O)[nH]1 (single isomer, unassigned) [Example 213, (S)- or (R)-1-(Cyclopropyl(4-(1,1-difluoroethyl)phenyl)methyl)-6-(dimethylamino)-3-(fluoromethyl)-1H-pyrazolo[3,4-d]pyrimidin-4(5H)-one]
0.97 nM	0.57 nM	–	–	CN(C)c1nc2c(c(CO)nn2C(c2ccc(C(F)F)c(F)c2)C2CC2)c(=O)[nH]1 (single isomer, unassigned) [Example 152, (R)- or (S)-1-(Cyclopropyl(4-(difluoromethyl)-3-fluorophenyl)methyl)-6-(dimethylamino)-3-(hydroxymethyl)-1H-pyrazolo[3,4-d]pyrimidin-4(5H)-one]
29 nM	28 nM	–	–	O=c1[nH]c(O)nc2c1c(CF)nn2C(c1ccc(OC(F)(F)F)c(F)c1)C1CC1 (single isomer, unassigned) [Example 45]
–	–	78 nM	50 nM	CC(c1ccc(C2CC2)cc1)n1nc(CO)c2c(=O)[nH]c(O)nc21 (stereo not drawn) [Example 6, 1-(1-(4-Cyclopropylphenyl)ethyl)-6-hydroxy-3-(hydroxymethyl)-1H-pyrazolo[3,4-d]pyrimidin-4(5H)-one]
26 nM	27 nM	–	–	CC(C)(C)c1ccc(C(C2CC2)n2nc(CC(F)(F)F)c3c(=O)[nH]c(O)nc32)cc1 (single isomer, unassigned) [Example 250, (R)- or (S)-1-((4-tert-Butylphenyl)(cyclopropyl)methyl)-6-hydroxy-3-(2,2,2-trifluoroethyl)-1H-pyrazolo(3,4-d]pyrimidin-4(5H)-one]
1.4 nM	0.81 nM	–	–	CCC(c1ccc(OC(F)F)c(F)c1)n1nc(CO)c2c(=O)[nH]c(N(C)C)nc21 (single isomer, unassigned) [Example 127, (S)- or (R)-1-(1-(4-(Difluoromethoxy)-3-fluorophenyl)propyl)-6-(dimethylamino)-3-(hydroxymethyl)-1H-pyrazolo[3,4-d]pyrimidin-4(5H)-one]
1.5 nM	2.2 nM	–	–	CCC(c1ccc(C(F)(F)F)cc1)n1nc(C(F)F)c2c(=O)[nH]c(O)nc21 (single isomer, unassigned) [Example 286, (S)- or (R)-3-(Difluoromethyl)-6-hydroxy-1-(1-(4-(trifluoromethyl)phenyl)propyl)-1H-pyrazolo[3,4-d]pyrimidin-4(5H)-one]
0.91 nM	0.57 nM	–	–	CN(C)c1nc2c(c(CO)nn2C(c2ccc(CC(F)(F)F)cc2)C2CC2)c(=O)[nH]1 (single isomer, unassigned) [Example 86, (R)- or (S)-1-(Cyclopropyl(4-(2,2,2-trifluoroethyl)phenyl)methyl)-6-(dimethylamino)-3-(hydroxymethyl)-1H-pyrazolo[3,4-d]pyrimidin-4(5H)-one]
0.15 nM	0.14 nM	–	–	CN(C)c1nc2c(c(CO)nn2C(c2ccc(CC(F)(F)F)c(F)c2)C2CC2)c(=O)[nH]1 (single isomer, unassigned) [Example 94, (R)- or (S)-1-(Cyclopropyl(3-fluoro-4-(2,2,2-trifluoroethyl)phenyl)methyl)-6-(dimethylamino)-3-(hydroxymethyl)-1H-pyrazolo[3,4-d]pyrimidin-4(5H)-one]
